Patent US10004826B2, “Implantable human liver tissue constructs and uses thereof” (Massachusetts Institute of Technology, priority 2010, dated 2018)

Columns and labels:
human liver mimetics = test: Human hepatotoxicity in humanized mice by serum human albumin ELISA; type: in vivo, mouse; conditions: inducers daily at days 4-7 post-implantation; OME oral gavage, RIF i.p.; blood days 2, 5, 7
Excerpt: Error bars are SEM for n=3 or greater.
Blood was collected by retro-orbital draw on days 2, 5 and 7 days after implantation for drug-treated mice and control mice with acellular hydrogel intraperitoneal implantations. Red bars mark average human serum albumin levels at each timepoint for n=3-6 mice per condition.
Human albumin in serum or media samples was quantified by enzyme-linked immunosorbant assay performed using goat anti-human albumin antibody, horseradish peroxidase detection, and 3,3′,5,5′-tetramethylbenzidine development. Urea was measured by acid- and heat-catalyzed detection of diacetylmonoxime conversion to a colorimetric product. Alanine aminotransfer (ALT) and aspartate aminotransfer (AST) enzymatic levels were detected with clinical kits based on colorimetric endpoint methods.

Mouse livers = conditions: in vivo
Method: Serum samples acquired at 4 h following APAP exposure were assayed for the liver damage marker alanine transaminase (ALT) using an endpoint colorimetric enzymatic assay.
Serum samples acquired at 4 h following APAP exposure were assayed for the liver damage markers aspartame transaminase (AST) using an endpoint colorimetric enzymatic assay. Shown are individual data points for n=3 mice per group, where black bars represent average values for each group.
Explanted livers were sectioned and stained with H&E. Shown are representative sections.
At day 9 of implantation, mice were fed by oral gavage with 500 ml drinking water or 500 ml acetaminophen (APAP, 250 mg/kg) in water. Mice were fasted for 16 h prior to APAP administration. Following APAP exposure, blood was collected by retro-orbital draw at 4 h. Blood samples were acquired by retro-orbital draw at 4 h following APAP exposure, serum separated, and serum analyzed for enzymatic activity of alanine transaminase (ALT) and aspartame transaminase (AST), non-species specific markers of liver damage (Teco Diagnostics). Engineered liver mimetics and mouse livers were extracted for biochemical and histological analysis. Mouse livers were paraffin-embedded, sectioned with 5 um slices, de-paraffinized and stained for hematoxylin and eosin (H&E).

[1] = tested on: luciferase-expressing Plasmodium berghei (Pb-luc); conditions: Huh7.5 and HC04 hepatoma cells in alginate
Method: Primary adult human hepatocytes and J2 stromal fibroblasts were seeded in lyophilized alginate sponges and infected with luciferase-expressing Plasmodium berghei (Pb-luc) three days post-seeding. Bioluminescence imaging was performed two days post-infection (FIG. 11a).
Next, the response of Pb-luc-infected hepatoma aggregates in alginate to primaquine treatment was tested.

[2] = tested on: encapsulated human hepatocytes; test: Albumin secretion and urea synthesis of HEP/FIB encapsulated in peptide-derivatized PEG-DA hydrogel; type: cell-based; conditions: 10 μmol/ml peptide; vs RGES controls; one week in vitro
Method: Liver mimetics were fabricated using a hydrogel polymerization apparatus. In brief, cellular pre-polymer solution was loaded into a 20-mm diameter, […] silicone spacer, and the solution exposed to UV light from a spot curing system with collimating lens (320-390 nm, 10 mW/cm^2, 20-30 s; EXFO Lite). […] Acrylate-PEG-peptide monomers were synthesized by conjugating RGDS or RGES to acrylate-PEG-N-hydroxysuccinimide (3.4 kDa) at a 1:1 molar ratio in 50 mM sodium bicarbonate buffer (pH 8.5). Reactions were dialyzed overnight against […] MWCO cellulose ester membrane and lyophilized for long-term storage at −80° C. Hepatocyte/fibroblast co-cultures were encapsulated at a final concentration of 8×10^6 hepatocytes/ml pre-polymer, in the absence or presence of an additional 6×10^6 liver endothelial cells (LEC)/ml of pre-polymer.
Human albumin in serum or media samples was quantified by enzyme-linked immunosorbant assay performed using goat anti-human albumin antibody, horseradish peroxidase detection, and 3,3′,5,5′-tetramethylbenzidine development. Urea was measured by acid- and heat-catalyzed detection of diacetylmonoxime conversion to a colorimetric product. Alanine aminotransfer (ALT) and aspartate aminotransfer (AST) enzymatic levels were detected with clinical kits based on colorimetric endpoint methods. […]

hepatitis C virus = conditions: uPA+/+/SCID model; cited from earlier work
human CYP2A6 = target: T1, human CYP2A6 (Homo sapiens, UniProt P11509); conditions: athymic nude, mouse, in vivo, ip, 80 mg/kg
T1 sequence (P11509 1-494): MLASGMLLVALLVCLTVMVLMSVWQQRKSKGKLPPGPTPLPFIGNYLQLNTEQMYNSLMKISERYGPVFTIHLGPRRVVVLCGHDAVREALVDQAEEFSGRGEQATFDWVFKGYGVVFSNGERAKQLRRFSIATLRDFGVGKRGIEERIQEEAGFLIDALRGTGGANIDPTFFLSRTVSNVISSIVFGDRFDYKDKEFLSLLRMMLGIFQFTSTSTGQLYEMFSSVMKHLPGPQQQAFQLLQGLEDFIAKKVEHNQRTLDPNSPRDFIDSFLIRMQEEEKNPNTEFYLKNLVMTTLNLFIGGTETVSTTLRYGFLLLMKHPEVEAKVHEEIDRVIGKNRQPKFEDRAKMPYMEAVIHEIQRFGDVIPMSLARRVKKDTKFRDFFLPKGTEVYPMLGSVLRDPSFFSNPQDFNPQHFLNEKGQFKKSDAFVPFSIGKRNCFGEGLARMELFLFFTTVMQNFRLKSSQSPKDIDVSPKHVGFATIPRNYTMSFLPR
Method: Humanized mice established on a nude mouse background were administered coumarin at 80 mg/kg by intraperitoneal injection. Following drug administration, mice were bled by retro-orbital draw at specific timepoints, and drug concentration quantified by LC/MS/MS. Open circles represent humanized mice, and closed circles represent wild-type (no implant) mice. Error bars are SEM for n=3 mice per group.
(§1) Mice administered 80 mg/kg of coumarin injected i.p. or 2 mg/kg debrisoquine (DB) gavaged p.o were subjected to retro-orbital draw at 5, 10 15, 30, 60, 90, and 120 minutes after drug administration, and terminal urine collection at 4 h. From ˜100 ml blood collections, serum was separated by centrifugation at 1200 g for 10 minutes and stored at −20° C. […] The area under the curve from time 0 until the time of the last measurable plasma concentration (AUC0-t) was calculated using the linear trapezoidal. Peak concentration (Cmax) and time to reach maximum concentration (tmax) values were obtained directly from the plasma concentration-time profile. Metabolic ratios were determined by dividing the AUC0-t of metabolite by the AUC0-t of the parent drug.
(§2) Following coumarin or debrisoquine exposure, serum or urine was sampled for quantitation of drug parent and metabolite concentrations by liquid chromatography (LC)/MS/MS.

human CYP2D6 = test: Debrisoquine metabolism and pharmacokinetics in humanized C57/BL6 mice; conditions: debrisoquine 2 mg/kg oral gavage
Method: Humanized mice established on a C57/Bl6 mouse background were administered debrisoquine at 2 mg/kg by oral gavage. Following drug administration, mice were bled by retro-orbital draw at specific timepoints, and drug concentration quantified by LC/MS/MS. […] Error bars are SEM for n=3 mice per group.
as §1, §2

**Q.** With `COc1ccc2[nH]c([S+]([O-])Cc3ncc(C)c(OC)c3C)nc2c1` (centres unmarked) [OME, omeprazole] as the compound, how does the “Human serum albumin from humanized mice over time” value (human liver mimetics) read?
**A.** not affected

**Q.** Which “Mouse liver injury by serum liver function enzyme tests and histopathology” value (Mouse livers) does the source give for `CC(=O)Nc1ccc(O)cc1` [APAP, acetaminophen] here?
**A.** appeared uninjured

**Q.** For `COc1cc(NC(C)CCCN)c2ncccc2c1` (centres unmarked) [primaquine], which “Inhibition of parasite development (BLI quantification)” value [1] is on record?
**A.** greater effect on inhibiting parasite development in Huh7.5 than in HC04

**Q.** Which “Improvement of encapsulated HEP/FIB synthetic and secretory functions” value [2] does the source give for RGDS here?
**A.** two- to three-fold

**Q.** Which “Response of HCV infection to anti-HCV therapy” value (hepatitis C virus) does the source give for `COc1ccc2c(O[C@@H]3C[C@H]4C(=O)N[C@]5(C(=O)O)C[C@H]5/C=C\CCCCC[C@H](NC(=O)OC5CCCC5)C(=O)N4C3)cc(-c3csc(NC(C)C)n3)nc2c1` [BILN-2061] here?
**A.** responding

**Q.** With `CO[C@H]1/C=C/O[C@@]2(C)Oc3c(C)c(O)c4c(O)c(c(/C=N/N5CCN(C)CC5)c(O)c4c3C2=O)NC(=O)/C(C)=C\C=C\[C@H](C)[C@H](O)[C@@H](C)[C@@H](O)[C@@H](C)[C@H](OC(C)=O)[C@@H]1C` [RIF, rifampin] as the compound, how does the “Mouse liver injury by serum liver function enzyme tests and histopathology” value (Mouse livers) read?
**A.** appeared uninjured

**Q.** With `O=c1ccc2ccc(O)cc2o1` [7-HC, 7-hydroxycoumarin] as the compound, how does the “Metabolic ratio (metabolite exposure over parent drug exposure, AUC), 7-HC/coumarin” value (human CYP2A6) read?
**A.** > 0.1

**Q.** For `N=C(N)N1Cc2ccccc2C(O)C1` (centres unmarked) [4-OHDB, 4-hydroxydebrisoquine], which “Metabolic ratio (metabolite exposure over parent drug exposure, AUC), 4-OHDB/debrisoquine” value (human CYP2D6) is on record?
**A.** > 0.1
